Patent US11267861B2, “Peptide-oligourea foldamer compounds and methods of their use” (UREKA SARL, priority 2016, dated 2022)
Numbered stars: 1 amine (or outer) side, 2 acyl side, 3 side chain; on linkers, the order of the positions; unused ones are H or OH. Peptide text beside a SMILES is read from it. * marks the point of attachment. X3 = O=C(O)[C@@H]1CCCN1C(=O)NC[C@H](CO)N*; X5 = C[C@@H](O)[C@H](N)CN*; CO = O=C([*:1])[*:2]

Columns and labels:
[1] = biological target: T1, Carboxypeptidase A (EC 3.4.17.1) (Bos taurus, UniProt P00730); assay: Enzymatic degradation by carboxypeptidase A; assay type: in vitro ADME, bovine; conditions: same results = more stable than the native peptides
T1 construct: from bovine pancreas (Fluka), milky suspension; purchased Fluka; host or cells: bovine pancreas
T1 sequence (P00730 111-419): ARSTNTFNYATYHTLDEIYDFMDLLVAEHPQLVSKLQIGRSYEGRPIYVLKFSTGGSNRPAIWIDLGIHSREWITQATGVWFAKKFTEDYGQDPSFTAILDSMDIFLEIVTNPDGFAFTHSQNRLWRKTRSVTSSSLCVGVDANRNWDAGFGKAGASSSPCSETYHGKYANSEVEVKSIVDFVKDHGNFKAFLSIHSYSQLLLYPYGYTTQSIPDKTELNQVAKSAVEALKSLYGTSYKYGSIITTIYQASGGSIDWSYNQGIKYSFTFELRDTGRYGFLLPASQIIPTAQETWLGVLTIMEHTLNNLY
Description: Enzymatic Degradation—Carboxypeptidase A. Carboxypeptidase A (EC 3.4.17.1) from bovine pancreas (Fluka), milky suspension, stock solution in PBS buffer (pH 7.5, 0.01 M). For each degradation experiment, stock solutions of the peptidic substrate and the enzyme were made using phosphate-buffered saline (PBS) buffer solution. The enzyme concentrations of the stock solutions were selected such that the standard substrates were totally degraded after a maximum of 15 min (ratio 2[enzyme]:100[substrate]). PBS buffer solution (10 mM sodium phosphate, 0.14 M NaCl) was prepared as follows: Solution A (4.75 mL of 0.2 M NaH2PO4.H2O), solution B (20.25 mL of 0.2 M Na2HPO4.H2O), NaCl (4.5 g) and H2O (25 mL) were stirred for 15 min at room temperature and diluted tenfold with H2O. The pH was adjusted either with NaOH (1 M) or with HCl (1 M) prior to use. A solution of the substrate in PBS buffer (pH 7.5, 0.01 M) and a solution of the required amount of enzyme, were mixed and incubated at 25° C. for 4 hours. Degradation was stopped with concentrated AcOH, and buffer solution was added so that the total volume reached 150 μL.
The resulting mixture was analyzed by reversed-phase HPLC. A mixture of CH3CN/H2O (0.1% TFA) was used as eluent. Gradients were 10% CH3CN to 100% CH3CN in 10 minutes. The flow rate, for all separations, was 1 mL·min^−1.

chymotrypsin = assay: Enzymatic degradation by chymotrypsin; assay type: in vitro ADME; conditions: compared to native peptide GLP-1 (SEQ ID NO: 1)
Description: Enzymatic Degradation—Chymotrypsin and Trypsin. Stock solutions of the compounds were prepared at a concentration of 400 μM in a solution of 50 mM HEPES buffer, 50 mM NaCl, 0.05% Tween-80, pH 8.0. Stock solution of the chymotrypsin or trypsin was prepared at a concentration of 250 μg/mL in water. Stability of compounds to chymotrypsin was assessed by conducting a protease reaction in a 96-well plates at room temperature. Each well received 10 μL of HEPES buffer, 38 μL of the solution of compound to be assayed (final concentration 304 μmol/L), and 2 μL of the enzyme solution (final concentration 10 μg/mL) for a total volume of 50 μL. Each compound was also incubated in the absence of the enzyme (12 μL of HEPES buffer and 38 μL of the compound).
At the indicated time (5, 10, 15, 30 and 60 minute(s)) a 10 μL aliquot was removed from each experimental reaction and pipet into 100 μL of 1% TFA solution to quench the reaction (t=0 minutes was determined using the reaction without enzyme). A portion of the quenched reaction solution was analyzed by HPLC. The time course of peptide degradation was determined by integrating the area of each peak in a series of HPLC traces. Another portion of the quenched reaction was analyzed by LC-MS for identification of each peptide fragment.

mouse GLP-1 receptor = biological target: T2, mouse GLP-1 receptor (Mus musculus, UniProt O35659); assay: GLP-1 functional assay: agonist activity by cAMP production (HTRF) in βTC6 cells; assay type: cell-based
T2 construct: mouse GLP-1 receptor endogenously expressed in βTC6 cells; endogenous in cells; host or cells: βTC6 cells
T2 sequence (O35659 22-463): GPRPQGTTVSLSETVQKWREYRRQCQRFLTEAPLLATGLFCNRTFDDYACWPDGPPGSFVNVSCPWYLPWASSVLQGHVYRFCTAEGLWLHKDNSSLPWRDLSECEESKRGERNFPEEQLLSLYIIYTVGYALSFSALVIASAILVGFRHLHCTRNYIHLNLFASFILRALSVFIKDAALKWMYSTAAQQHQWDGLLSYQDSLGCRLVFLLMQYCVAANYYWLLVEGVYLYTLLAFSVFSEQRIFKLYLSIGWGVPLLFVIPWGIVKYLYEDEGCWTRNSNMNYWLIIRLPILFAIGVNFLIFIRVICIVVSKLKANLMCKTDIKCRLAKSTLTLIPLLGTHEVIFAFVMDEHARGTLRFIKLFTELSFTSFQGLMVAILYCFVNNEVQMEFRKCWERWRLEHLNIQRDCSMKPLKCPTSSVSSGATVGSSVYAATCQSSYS
Description: For stimulated control measurement, separate assay wells contain 10 nM GLP-1(7-37) were utilized.
Following incubation, the cells were lysed and the fluorescence acceptor (D2-labeled cAMP) and fluorescence donor (anti-cAMP antibody labeled with europium cryptate) were added. […] The results are expressed as a percent of the control response to 10 nM GLP-1(7-37). The standard reference agonist is GLP-1(7-37), which was tested in each experiment at several concentrations to generate a concentration-response curve from which its EC50 value was calculated.
(§1) HTRF (Homogeneous Time-Resolved Fluorescence) principle. The HTRF technology is based on time resolved fluorescence energy transfer (TR-FRET), which occurs between long-lived fluorophore Europium or Terbium Cryptates, and EuK or Tb respectively, as a donor and the allophycocyanin XL665, d2 or Red as acceptor. Many compounds and proteins present in biological fluids or serum are naturally fluorescent, and the use of conventional, prompt fluorescence leads to serious limitations in assay sensitivity. The use of long-lived fluorophore combined with time-resolved detection (a delay between excitation and emission detection) minimizes prompt fluorescence interference.

MDMX = biological target: T3, MDMX (Homo sapiens, UniProt O15151); assay: MDMX/p53 interaction HTRF assay; assay type: biochemical
T3 construct: GI:88702790)
T3 sequence (O15151 1-174): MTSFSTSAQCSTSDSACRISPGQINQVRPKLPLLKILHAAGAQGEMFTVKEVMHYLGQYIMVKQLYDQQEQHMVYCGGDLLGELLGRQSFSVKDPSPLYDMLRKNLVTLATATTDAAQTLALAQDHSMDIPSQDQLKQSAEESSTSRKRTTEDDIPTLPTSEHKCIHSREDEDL
Description: (§2) Functional Assay to Examine Bioactivity of MDM2 and MDMX Antagonists. The compounds were received dissolved in 100% DMSO at a final concentration of 10 mM and frozen. After complete defrosting and sonication, all compounds were diluted in 100% DMSO at both 0.4 mM, 0.04 and 0.004 mM, and distributed into two 96-well compounds daughter plates (Table 2).
(§3) Each compound was evaluated in duplicate on both (MDM2 or MDMX)/p53 interaction and on a positive TR-FRET control protein in a 384-well reaction plate. […] The reference compound Nutlin-3 is integrated in the compound daughter plate and was used under the same conditions.
as §1, with “interference. […]” for “interference.”

MDM2 = biological target: T4, MDM2 (Homo sapiens, UniProt Q00987); assay: MDM2/p53 interaction HTRF assay; assay type: biochemical
T4 construct: GST-Flag-Mdm2 (AA1-188; GI:4505136)
T4 sequence (Q00987 1-188): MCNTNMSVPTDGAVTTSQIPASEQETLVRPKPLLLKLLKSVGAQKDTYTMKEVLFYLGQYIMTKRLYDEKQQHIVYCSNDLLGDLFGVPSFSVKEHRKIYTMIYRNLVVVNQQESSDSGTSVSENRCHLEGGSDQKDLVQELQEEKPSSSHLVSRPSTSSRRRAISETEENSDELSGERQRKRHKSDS
Description: as §2, §3
as §1, with “interference. […]” for “interference.”

## CC[C@H](C)[C@H](NC(=O)[C@H](Cc1ccccc1)NC(=O)[C@H](CCC(=O)O)NC(=O)[C@H](CCCCN)NC(=O)[C@H](C)NC(=O)[C@H](C)NC(=O)[C@H](CCC(N)=O)NC(=O)CNC(=O)[C@H](CCC(=O)O)NC(=O)[C@H](CC(C)C)NC(=O)[C@H](Cc1ccc(O)cc1)NC(=O)[C@H](CO)NC(=O)[C@H](CO)NC(=O)[C@@H](NC(=O)[C@H](CC(=O)O)NC(=O)[C@H](CO)NC(=O)[C@@H](NC(=O)[C@H](Cc1ccccc1)NC(=O)[C@@H](NC(=O)CNC(=O)[C@H](CCC(=O)O)NC(=O)[C@H](C)NC(=O)[C@@H](N)Cc1c[nH]cn1)[C@@H](C)O)[C@@H](C)O)C(C)C)C(=O)N[C@@H](C)C(=O)N[C@H](CNC(=O)N[C@@H](CC(C)C)C(=O)N[C@H](C(=O)N[C@@H](CCCCN)C(=O)NCC(=O)N[C@@H](CCCNC(=N)N)C(=O)NCC(=O)O)C(C)C)Cc1c[nH]c2ccccc12 [Compound 4]
[1]
  stability with carboxipeptidase A compared to native peptides: same results
chymotrypsin
  half-life in the chymotrypsin degradation test compared to native peptide: longer half-life
Mouse GLP-1 receptor
  EC50: 0.26 nM

## CC(C)C[C@H](NC(=O)[C@H](C)NC(=O)[C@H](Cc1c[nH]c2ccccc12)NC(=O)[C@H](Cc1ccc(O)cc1)NC(=O)[C@H](CCC(=O)O)NC(=O)[C@H](C)NC(=O)[C@H](Cc1ccccc1)NC(=O)[C@H](CO)NC(=O)NC[C@@H](N)[C@@H](C)O)C(=O)N[C@@H](CC(C)C)C(=O)N[C@@H](CO)CNC(=O)N1CCC[C@H]1C(=O)O [Compound 23] ({X5-CO}-SFAEYWALL-X3; N-terminus and C-terminus assumed)
MDMX
  EC50: 6.3 nM
MDM2
  EC50: 0.75 nM
